According to PubChem BioAssay AID1918939 (Molecular Pharmacology Branch, DTP, NCI, 2023):

Test system: 653999-131-R-J2-PDC complex spheroid viability
Experiment: Anticancer human tumor 653999-131-R-J2-PDC patient-derived lung adenocarcinoma cell line growth inhibition
Settings: for IC50: curve of first compound; for viability, T/C: stronger effect = lower value
Procedure, shortened: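 Drug combinations with the LSD1 inhibitor iadademstat tested on tumor cells co-cultured as spheroids with endothelial cells and mesenchymal stem cells. Concentrations descended in half-log increments from clinical Cmax or 10 microM.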
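Note: spheroids exposed to agents for seven days before readout.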

**Q.** What does the source list for `Nc1ccccc1NC(=O)c1ccc(CNC(=O)OCc2cccnc2)cc1` + NC1CCC(NC2CC2c2ccccc2)CC1?
**A.** IC50 (second compound 0.1 µM): 349 nM; IC50 (second compound 0.316 µM): 228 nM; IC50 (second compound 1 µM): 394 nM; IC50 (second compound 3.16 µM): 294 nM; IC50 (second compound 10 µM): 301 nM; viability, T/C (second compound 0.1 µM, first compound 0.00949 µM): 68.4%; viability, T/C (second compound 0.1 µM, first compound 0.03 µM): 68.1%; viability, T/C (second compound 0.1 µM, first compound 0.0949 µM): 57.1%; viability, T/C (second compound 0.1 µM, first compound 0.3 µM): 54.3%; viability, T/C (second compound 0.1 µM, first compound 0.949 µM): 35.8%; viability, T/C (second compound 0.1 µM, first compound 3 µM): 9.78%; viability, T/C (second compound 0.316 µM, first compound 0.00949 µM): 70.5%; viability, T/C (second compound 0.316 µM, first compound 0.03 µM): 61.3%; viability, T/C (second compound 0.316 µM, first compound 0.0949 µM): 56.1%; viability, T/C (second compound 0.316 µM, first compound 0.3 µM): 49%; viability, T/C (second compound 0.316 µM, first compound 0.949 µM): 33.2%; viability, T/C (second compound 0.316 µM, first compound 3 µM): 8.88%; viability, T/C (second compound 1 µM, first compound 0.00949 µM): 75.3%; viability, T/C (second compound 1 µM, first compound 0.03 µM): 69.7%; viability, T/C (second compound 1 µM, first compound 0.0949 µM): 65.1%; viability, T/C (second compound 1 µM, first compound 0.3 µM): 52.4%; viability, T/C (second compound 1 µM, first compound 0.949 µM): 38.5%; viability, T/C (second compound 1 µM, first compound 3 µM): 8.55%; viability, T/C (second compound 3.16 µM, first compound 0.00949 µM): 69.6%; viability, T/C (second compound 3.16 µM, first compound 0.03 µM): 77.9%; viability, T/C (second compound 3.16 µM, first compound 0.0949 µM): 57.1%; viability, T/C (second compound 3.16 µM, first compound 0.3 µM): 46.9%; viability, T/C (second compound 3.16 µM, first compound 0.949 µM): 36.3%; viability, T/C (second compound 3.16 µM, first compound 3 µM): 8.4%; viability, T/C (second compound 10 µM, first compound 0.00949 µM): 74.6%; viability, T/C (second compound 10 µM, first compound 0.03 µM): 62%; viability, T/C (second compound 10 µM, first compound 0.0949 µM): 54.6%; viability, T/C (second compound 10 µM, first compound 0.3 µM): 57.4%; viability, T/C (second compound 10 µM, first compound 0.949 µM): 30.8%; viability, T/C (second compound 10 µM, first compound 3 µM): 5.06%

**Q.** Which IC50 (second compound 0.1 µM) does the source give for `O=C(c1cc(Cc2n[nH]c(=O)c3ccccc23)ccc1F)N1CCN(C(=O)C2CC2)CC1` + NC1CCC(NC2CC2c2ccccc2)CC1 here?
**A.** > 10000 nM

**Q.** What about the IC50 (second compound 0.316 µM) of the same molecule?
**A.** > 10000 nM

**Q.** What about the IC50 (second compound 1 µM) of the same molecule?
**A.** > 10000 nM

**Q.** What about the IC50 (second compound 3.16 µM) of the same molecule?
**A.** > 10000 nM

**Q.** And the IC50 (second compound 10 µM)?
**A.** > 10000 nM

**Q.** And the viability, T/C (second compound 0.1 µM, first compound 0.0316 µM)?
**A.** 86.2%

**Q.** What about the viability, T/C (second compound 0.1 µM, first compound 0.1 µM) of the same molecule?
**A.** 94.2%

**Q.** And the viability, T/C (second compound 0.1 µM, first compound 0.316 µM)?
**A.** 80.7%

**Q.** What about the viability, T/C (second compound 0.1 µM, first compound 1 µM) of the same molecule?
**A.** 87.7%

**Q.** And the viability, T/C (second compound 0.1 µM, first compound 3.16 µM)?
**A.** 81.6%

**Q.** And the viability, T/C (second compound 0.1 µM, first compound 10 µM)?
**A.** 57.6%

**Q.** What about the viability, T/C (second compound 0.316 µM, first compound 0.0316 µM) of the same molecule?
**A.** 99.5%

**Q.** And the viability, T/C (second compound 0.316 µM, first compound 0.1 µM)?
**A.** 93.6%

**Q.** And the viability, T/C (second compound 0.316 µM, first compound 0.316 µM)?
**A.** 98.3%

**Q.** What about the viability, T/C (second compound 0.316 µM, first compound 1 µM) of the same molecule?
**A.** 84.6%

**Q.** And the viability, T/C (second compound 0.316 µM, first compound 3.16 µM)?
**A.** 70.1%

**Q.** And the viability, T/C (second compound 0.316 µM, first compound 10 µM)?
**A.** 53%

**Q.** And the viability, T/C (second compound 1 µM, first compound 0.0316 µM)?
**A.** 103%

**Q.** And the viability, T/C (second compound 1 µM, first compound 0.1 µM)?
**A.** 92.5%

**Q.** And the viability, T/C (second compound 1 µM, first compound 0.316 µM)?
**A.** 109%

**Q.** And the viability, T/C (second compound 1 µM, first compound 1 µM)?
**A.** 81%

**Q.** What about the viability, T/C (second compound 1 µM, first compound 3.16 µM) of the same molecule?
**A.** 71.5%

**Q.** What about the viability, T/C (second compound 1 µM, first compound 10 µM) of the same molecule?
**A.** 56.9%

**Q.** What about the viability, T/C (second compound 3.16 µM, first compound 0.0316 µM) of the same molecule?
**A.** 91.3%

**Q.** What about the viability, T/C (second compound 3.16 µM, first compound 0.1 µM) of the same molecule?
**A.** 104%

**Q.** What about the viability, T/C (second compound 3.16 µM, first compound 0.316 µM) of the same molecule?
**A.** 84.8%

**Q.** And the viability, T/C (second compound 3.16 µM, first compound 1 µM)?
**A.** 84.7%

**Q.** And the viability, T/C (second compound 3.16 µM, first compound 3.16 µM)?
**A.** 85.1%

**Q.** What about the viability, T/C (second compound 3.16 µM, first compound 10 µM) of the same molecule?
**A.** 58.5%

**Q.** And the viability, T/C (second compound 10 µM, first compound 0.0316 µM)?
**A.** 113%

**Q.** What about the viability, T/C (second compound 10 µM, first compound 0.1 µM) of the same molecule?
**A.** 93.9%

**Q.** And the viability, T/C (second compound 10 µM, first compound 0.316 µM)?
**A.** 102%

**Q.** And the viability, T/C (second compound 10 µM, first compound 1 µM)?
**A.** 92.2%

**Q.** What about the viability, T/C (second compound 10 µM, first compound 3.16 µM) of the same molecule?
**A.** 76.4%

**Q.** What about the viability, T/C (second compound 10 µM, first compound 10 µM) of the same molecule?
**A.** 60%
